Laboratory results published in US8217035B2, “Pyrimidine derivatives used as PI-3-kinase inhibitors” (Novartis AG, priority 2006, dated 2012).
pEC50, pIC50: −log10 of the molar value.

Legend:
PI3 kinase alpha = PI3 kinase alpha (Homo sapiens, UniProt P42336); experiment: PI3K ATP depletion assay (Biological Method 1, Assay 3; KinaseGlo luminescence); type: biochemical; conditions: ATP depletion assay; read-out: PI3 Kinase Alpha, IC50
Outline: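 Compound in DMSO was mixed with 10 nM PI3 kinase and 5 μg/mL phosphatidylinositol, and the reaction was started with 2 μM ATP. It ran to about 50% ATP depletion and was stopped with KinaseGlo.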

[1] = test system: A2780 ovarian cancer cells; experiment: Cellular proliferation in A2780 cells, Cell Titer Glo (Biological Method 4); type: cell-based; conditions: Homo sapiens; ovarian cancer cell line A2780
Outline: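 A2780 cells seeded at 1,000/well in DMEM with 10% FBS, at least 2 h before compound, then exposed 72 h at 37 °C, 5% CO2. Viable cells measured by Cell Titer Glo luminescence; EC50 calculated from duplicate conditions.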

Chain of PI3 kinase alpha (P42336 whole entry): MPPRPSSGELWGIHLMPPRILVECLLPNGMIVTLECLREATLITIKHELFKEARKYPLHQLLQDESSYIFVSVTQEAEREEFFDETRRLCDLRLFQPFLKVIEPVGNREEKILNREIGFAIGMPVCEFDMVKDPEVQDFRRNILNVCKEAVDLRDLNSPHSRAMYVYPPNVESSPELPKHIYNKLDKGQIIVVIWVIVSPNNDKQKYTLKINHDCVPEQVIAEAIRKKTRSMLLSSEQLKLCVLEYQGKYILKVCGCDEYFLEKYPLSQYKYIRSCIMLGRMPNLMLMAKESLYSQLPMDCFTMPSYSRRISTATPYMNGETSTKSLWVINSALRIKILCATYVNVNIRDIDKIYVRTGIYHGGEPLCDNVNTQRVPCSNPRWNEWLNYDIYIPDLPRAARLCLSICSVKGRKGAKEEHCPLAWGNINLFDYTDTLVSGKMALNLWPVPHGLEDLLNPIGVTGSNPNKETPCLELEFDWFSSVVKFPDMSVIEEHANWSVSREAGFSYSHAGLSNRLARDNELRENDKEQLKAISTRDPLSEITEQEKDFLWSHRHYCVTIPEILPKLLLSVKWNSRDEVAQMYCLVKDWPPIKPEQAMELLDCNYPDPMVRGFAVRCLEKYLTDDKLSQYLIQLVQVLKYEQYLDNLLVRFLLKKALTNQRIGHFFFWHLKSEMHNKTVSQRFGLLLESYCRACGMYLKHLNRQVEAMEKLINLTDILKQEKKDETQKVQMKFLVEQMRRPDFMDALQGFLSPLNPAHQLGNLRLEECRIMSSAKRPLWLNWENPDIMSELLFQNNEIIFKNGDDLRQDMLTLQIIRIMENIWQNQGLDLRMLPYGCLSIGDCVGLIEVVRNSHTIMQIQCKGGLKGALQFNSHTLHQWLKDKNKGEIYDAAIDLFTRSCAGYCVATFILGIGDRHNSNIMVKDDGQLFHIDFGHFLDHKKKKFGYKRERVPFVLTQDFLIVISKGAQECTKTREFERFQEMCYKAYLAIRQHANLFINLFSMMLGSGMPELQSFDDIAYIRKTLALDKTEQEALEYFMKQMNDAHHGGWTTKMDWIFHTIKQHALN
Chain of PI3 kinase alpha (P27986 whole entry partner): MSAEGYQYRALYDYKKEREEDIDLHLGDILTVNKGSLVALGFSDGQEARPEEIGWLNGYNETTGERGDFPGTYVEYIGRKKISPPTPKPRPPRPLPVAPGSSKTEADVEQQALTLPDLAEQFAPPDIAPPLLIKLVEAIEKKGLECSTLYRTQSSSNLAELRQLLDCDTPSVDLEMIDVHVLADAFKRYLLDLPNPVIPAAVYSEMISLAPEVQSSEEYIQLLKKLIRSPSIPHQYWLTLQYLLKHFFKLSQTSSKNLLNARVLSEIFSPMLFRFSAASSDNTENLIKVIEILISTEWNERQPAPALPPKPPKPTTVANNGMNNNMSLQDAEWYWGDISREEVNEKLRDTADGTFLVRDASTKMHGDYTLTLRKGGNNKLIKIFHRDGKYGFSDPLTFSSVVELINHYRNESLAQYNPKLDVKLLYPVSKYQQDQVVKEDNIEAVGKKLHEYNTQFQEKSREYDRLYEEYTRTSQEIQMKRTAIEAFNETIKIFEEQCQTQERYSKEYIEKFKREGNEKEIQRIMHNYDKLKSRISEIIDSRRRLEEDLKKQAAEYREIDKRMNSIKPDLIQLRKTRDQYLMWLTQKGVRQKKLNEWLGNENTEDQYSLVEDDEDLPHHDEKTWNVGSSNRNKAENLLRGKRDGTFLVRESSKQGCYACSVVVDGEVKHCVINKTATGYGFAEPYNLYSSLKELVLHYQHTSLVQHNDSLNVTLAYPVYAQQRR

CC(C)C(=O)N1CCC(Oc2cc(-c3cnc(N)cc3C(F)(F)F)nc(N3CCOCC3)n2)CC1 [Compound 458]
pIC50 (PI3 kinase alpha): > 6.00 | pEC50 [1]: > 5.00

CC(C)OC(=O)N1CCC(Oc2cc(-c3cnc(N)cc3C(F)(F)F)nc(N3CCOCC3)n2)CC1 [Compound 460]
pIC50 (PI3 kinase alpha): > 6.00 | pEC50 [1]: > 5.00

CS(=O)(=O)N1CCC(Oc2cc(-c3cnc(N)cc3C(F)(F)F)nc(N3CCOCC3)n2)CC1 [Compound 461]
pIC50 (PI3 kinase alpha): > 6.00 | pEC50 [1]: > 5.00

Nc1ncc(-c2ccnc(N3CCOCC3)n2)c(=O)[nH]1 [Compound 462]
pIC50 (PI3 kinase alpha): > 6.00 | pEC50 [1]: > 5.00

Nc1ncc(-c2ccnc(N3CCOCC3)n2)c(N)n1 [Compound 463]
pIC50 (PI3 kinase alpha): > 6.00 | pEC50 [1]: > 4.60

Nc1ncc(-c2cc(Cl)nc(N3CCOCC3)n2)c(N)n1 [Compound 464]
pIC50 (PI3 kinase alpha): > 6.00 | pEC50 [1]: > 4.60

N#Cc1cc(-c2cnc(N)nc2C(F)(F)F)nc(N2CCOCC2)n1 [Compound 465]
pIC50 (PI3 kinase alpha): > 6.00 | pEC50 [1]: > 5.00

Nc1cc(C(F)(F)F)c(-c2ccnc(N3CCOCC3)n2)cn1 [Compound 466]
pIC50 (PI3 kinase alpha): > 6.00 | pEC50 [1]: > 4.60

Nc1cc(C(F)(F)F)c(-c2cc(Cl)nc(N3CCOCC3)n2)cn1 [Compound 467]
pIC50 (PI3 kinase alpha): > 6.00 | pEC50 [1]: > 4.60

Cc1nc(N)ncc1-c1nc(N2CCOCC2)nc(Cl)c1C [Compound 468]
pIC50 (PI3 kinase alpha): > 6.00 | pEC50 [1]: > 4.60

Nc1ncc(-c2cc(C(F)(F)F)nc(N3CCOCC3)n2)cn1 [Compound 472]
pIC50 (PI3 kinase alpha): > 6.00 | pEC50 [1]: > 5.00

Nc1ncc(-c2nc(N3CCOCC3)ncc2C(F)(F)F)cn1 [Compound 474]
pIC50 (PI3 kinase alpha): > 6.00 | pEC50 [1]: > 4.60

COc1cncc(-c2nc(N3CCOCC3)nc(-c3cnc(N)nc3)c2C)c1 [Compound 475]
pIC50 (PI3 kinase alpha): > 6.00 | pEC50 [1]: > 5.00

COc1ccc(Nc2cc(-c3cnc(N)nc3C)nc(N3CCOCC3)n2)cn1 [Compound 476]
pIC50 (PI3 kinase alpha): > 6.00 | pEC50 [1]: > 5.00

Cc1nc(N)ncc1-c1cc(Nc2ccc3c(c2)OCCO3)nc(N2CCOCC2)n1 [Compound 477]
pIC50 (PI3 kinase alpha): > 6.00 | pEC50 [1]: > 5.00

Cc1nc(N)ncc1-c1ccnc(N2CCOCC2)n1 [Compound 478]
pIC50 (PI3 kinase alpha): > 6.00 | pEC50 [1]: > 4.60

COc1ccc(Nc2nc(N3CCOCC3)nc(-c3cnc(N)nc3)c2C)cn1 [Compound 480]
pIC50 (PI3 kinase alpha): > 6.00 | pEC50 [1]: > 5.00

Cc1c(Nc2ccc3c(c2)OCCO3)nc(N2CCOCC2)nc1-c1cnc(N)nc1 [Compound 481]
pIC50 (PI3 kinase alpha): > 6.00 | pEC50 [1]: > 6.00

Cc1cnc(N2CCOCC2)nc1-c1cnc(N)nc1 [Compound 482]
pIC50 (PI3 kinase alpha): > 6.00 | pEC50 [1]: > 5.00

Cc1c(Cl)nc(N2CCOCC2)nc1-c1cnc(N)nc1 [Compound 483]
pIC50 (PI3 kinase alpha): > 6.00 | pEC50 [1]: > 4.60

Cc1c(-c2cnc(N)nc2)nc(N2CCOCC2)nc1-c1cnc(N)nc1 [Compound 484]
pIC50 (PI3 kinase alpha): > 6.00 | pEC50 [1]: > 5.00

CC(C)N1CCN(c2ccc(Nc3cc(-c4cnc(N)cc4C(F)(F)F)nc(N4CCOCC4)n3)cn2)CC1 [Compound 488]
pIC50 (PI3 kinase alpha): > 6.00 | pEC50 [1]: > 5.00

Nc1cc(C(F)(F)F)c(-c2cc(Nc3cnc4ccc(OCCN5CCCC5)cc4c3)nc(N3CCOCC3)n2)cn1 [Compound 489]
pIC50 (PI3 kinase alpha): > 6.00 | pEC50 [1]: > 5.00

CC(C)(C)OC(=O)CNc1ccc(Nc2cc(-c3cnc(N)cc3C(F)(F)F)nc(N3CCOCC3)n2)cn1 [Compound 491]
pIC50 (PI3 kinase alpha): > 6.00 | pEC50 [1]: > 4.60

COc1ccc2cc(Nc3cc(-c4ccc(N)nc4)nc(N4CCOCC4)n3)cnc2c1 [Compound 494]
pIC50 (PI3 kinase alpha): > 6.00 | pEC50 [1]: > 4.60

Nc1ncc(-c2cc(Nc3cnc4ccc(OC(F)(F)F)cc4c3)nc(N3CCOCC3)n2)cn1 [Compound 495]
pIC50 (PI3 kinase alpha): > 6.00 | pEC50 [1]: > 4.60

Nc1ccc(-c2cc(Nc3ccc(NCCN4CCCC4)nc3)nc(N3CCOCC3)n2)cn1 [Compound 497]
pIC50 (PI3 kinase alpha): > 6.00 | pEC50 [1]: > 5.00

CN(C)c1nc2ccccc2cc1-c1cc(-c2ccc(N)nc2)nc(N2CCOCC2)n1 [Compound 500]
pIC50 (PI3 kinase alpha): > 6.00 | pEC50 [1]: > 5.00

CN1CCC(Nc2ccc(Nc3cc(-c4ccc(N)nc4)nc(N4CCOCC4)n3)cn2)CC1 [Compound 501]
pIC50 (PI3 kinase alpha): > 6.00 | pEC50 [1]: > 5.00

CN(C)c1ccc(-c2cc(-c3ccc(N)nc3)nc(N3CCOCC3)n2)cn1 [Compound 505]
pIC50 (PI3 kinase alpha): > 6.00 | pEC50 [1]: > 5.00

Nc1ccc(-c2cc(-c3cccnc3F)nc(N3CCOCC3)n2)cn1 [Compound 508]
pIC50 (PI3 kinase alpha): > 6.00 | pEC50 [1]: > 5.00

CC(C)N1CCN(c2ccc(Nc3cc(-c4ccc(N)nc4)nc(N4CCOCC4)n3)cn2)CC1 [Compound 509]
pIC50 (PI3 kinase alpha): > 6.00 | pEC50 [1]: > 5.00

Nc1ncc(-c2cc(OCCCN3CCOCC3)nc(N3CCOCC3)n2)cn1 [Compound 511]
pIC50 (PI3 kinase alpha): > 6.00 | pEC50 [1]: > 5.00

Nc1ccc(-c2cc(Oc3cccnc3)nc(N3CCOCC3)n2)cn1 [Compound 512]
pIC50 (PI3 kinase alpha): > 6.00 | pEC50 [1]: > 5.00

CN1CCC(Oc2cc(-c3cnc(N)nc3)nc(N3CCOCC3)n2)CC1 [Compound 514]
pIC50 (PI3 kinase alpha): > 6.00 | pEC50 [1]: > 5.00

Nc1ncc(-c2cc(OC3CCOCC3)nc(N3CCOCC3)n2)cn1 [Compound 515]
pIC50 (PI3 kinase alpha): > 6.00 | pEC50 [1]: > 6.00

Nc1ncc(-c2cc(-c3cccnc3)nc(N3CCOCC3)n2)cn1 [Compound 518]
pIC50 (PI3 kinase alpha): > 6.00 | pEC50 [1]: > 6.00

Nc1ncc(-c2cc(N[C@@H]3CN4CCC3CC4)nc(N3CCOCC3)n2)cn1 [Compound 520]
pIC50 (PI3 kinase alpha): > 6.00 | pEC50 [1]: > 5.00

Nc1ncc(-c2cc(Nc3ccc4[nH]cnc4c3)nc(N3CCOCC3)n2)cn1 [Compound 521]
pIC50 (PI3 kinase alpha): > 6.00 | pEC50 [1]: > 5.00

Nc1ncc(-c2cc(Nc3ccc4[nH]ncc4c3)nc(N3CCOCC3)n2)cn1 [Compound 522]
pIC50 (PI3 kinase alpha): > 6.00 | pEC50 [1]: > 5.00

Nc1ncc(-c2cc(Cl)nc(N3CCOCC3)n2)cn1 [Compound 523]
pIC50 (PI3 kinase alpha): > 6.00 | pEC50 [1]: > 5.00

CS(=O)(=O)N1CC[C@H](Oc2cc(-c3cnc(N)cc3C(F)(F)F)nc(N3CCOCC3)n2)C1 [Compound 524]
pIC50 (PI3 kinase alpha): > 6.00 | pEC50 [1]: > 5.00

Nc1ncc(-c2cc(O[C@@H]3CCCN(C(=O)OC4CCCC4)C3)nc(N3CCOCC3)n2)c(N)n1 [Compound 526]
pIC50 (PI3 kinase alpha): > 6.00 | pEC50 [1]: > 5.00

CC(C)OC(=O)N1CCC[C@@H](Oc2cc(-c3cnc(N)nc3N)nc(N3CCOCC3)n2)C1 [Compound 527]
pIC50 (PI3 kinase alpha): > 6.00 | pEC50 [1]: > 5.00

Nc1ncc(-c2cc(O[C@H]3CCCN(C(=O)c4ccc(F)cc4)C3)nc(N3CCOCC3)n2)c(N)n1 [Compound 528]
pIC50 (PI3 kinase alpha): > 6.00 | pEC50 [1]: > 5.00

CC(=O)N1CCC[C@H](Oc2cc(-c3cnc(N)nc3N)nc(N3CCOCC3)n2)C1 [Compound 529]
pIC50 (PI3 kinase alpha): > 6.00 | pEC50 [1]: > 5.00

Nc1ncc(-c2cc(O[C@H]3CCOC3)nc(N3CCOCC3)n2)c(C(F)(F)F)n1 [Compound 530]
pIC50 (PI3 kinase alpha): > 6.00 | pEC50 [1]: > 5.00

Nc1ncc(-c2cc(O[C@@H]3CCOC3)nc(N3CCOCC3)n2)c(C(F)(F)F)n1 [Compound 531]
pIC50 (PI3 kinase alpha): > 6.00 | pEC50 [1]: > 5.00

Nc1cc(C(F)(F)F)c(-c2cc(O[C@H]3CCN(C(=O)c4ccccc4)C3)nc(N3CCOCC3)n2)cn1 [Compound 532]
pIC50 (PI3 kinase alpha): > 6.00 | pEC50 [1]: > 5.00

CC(C)OC(=O)N1CC[C@H](Oc2cc(-c3cnc(N)cc3C(F)(F)F)nc(N3CCOCC3)n2)C1 [Compound 534]
pIC50 (PI3 kinase alpha): > 6.00 | pEC50 [1]: > 5.00

COC(=O)N1CC[C@@H](Oc2cc(-c3cnc(N)cc3C(F)(F)F)nc(N3CCOCC3)n2)C1 [Compound 539]
pIC50 (PI3 kinase alpha): > 6.00 | pEC50 [1]: > 5.00

CS(=O)(=O)N1CC[C@@H](Oc2cc(-c3cnc(N)cc3C(F)(F)F)nc(N3CCOCC3)n2)C1 [Compound 540]
pIC50 (PI3 kinase alpha): > 6.00 | pEC50 [1]: > 5.00

Nc1ncc(-c2cc(CNC(=O)OC3CCOC3)nc(N3CCOCC3)n2)c(N)n1 (stereo not shown) [Compound 541]
pIC50 (PI3 kinase alpha): > 6.00 | pEC50 [1]: > 4.60

Nc1cc(C(F)(F)F)c(-c2cc(-c3ccccc3S(N)(=O)=O)nc(N3CCOCC3)n2)cn1 [Compound 543]
pIC50 (PI3 kinase alpha): > 6.00 | pEC50 [1]: > 5.00

CC(C)(C)NS(=O)(=O)c1ccccc1-c1cc(-c2cnc(N)cc2C(F)(F)F)nc(N2CCOCC2)n1 [Compound 544]
pIC50 (PI3 kinase alpha): > 6.00 | pEC50 [1]: > 4.60

Nc1ncc(-c2cc(N3CCOc4ccccc43)nc(N3CCOCC3)n2)c(C(F)(F)F)n1 [Compound 546]
pIC50 (PI3 kinase alpha): > 6.00 | pEC50 [1]: > 5.00
